The source of these data is ChEMBL document CHEMBL5338738, “Discovery of Novel Sesquiterpene Lactone Derivatives as Potent PKM2 Activators for the Treatment of Ulcerative Colitis” (J Med Chem, 2023).

Molecules are shown by their SMILES. Activity calls are given as the source filed them. The calls are words filed in the database; no cut-off is given here.

For one experiment, the system named is T-cell. As to the kind of experiment: Immunomodulatory activity in C57BL/6 mouse mesenteric lymph node T cells assessed as inhibition of concanavalin A stimulated T-cell proliferation incubated for 68 hrs by CCK-8 assay. The class given is functional, cell-based. As to conditions: C57BL/6, T-cell.
The target of experiment [1] is T1, Pyruvate kinase PKM (Homo sapiens, UniProt P14618). Kind of experiment: Activation of PKM2 (unknown origin) at 3 uM incubated for 30 mins relative to control.
Target sequence in this assay (P14618 2-531 limits assumed): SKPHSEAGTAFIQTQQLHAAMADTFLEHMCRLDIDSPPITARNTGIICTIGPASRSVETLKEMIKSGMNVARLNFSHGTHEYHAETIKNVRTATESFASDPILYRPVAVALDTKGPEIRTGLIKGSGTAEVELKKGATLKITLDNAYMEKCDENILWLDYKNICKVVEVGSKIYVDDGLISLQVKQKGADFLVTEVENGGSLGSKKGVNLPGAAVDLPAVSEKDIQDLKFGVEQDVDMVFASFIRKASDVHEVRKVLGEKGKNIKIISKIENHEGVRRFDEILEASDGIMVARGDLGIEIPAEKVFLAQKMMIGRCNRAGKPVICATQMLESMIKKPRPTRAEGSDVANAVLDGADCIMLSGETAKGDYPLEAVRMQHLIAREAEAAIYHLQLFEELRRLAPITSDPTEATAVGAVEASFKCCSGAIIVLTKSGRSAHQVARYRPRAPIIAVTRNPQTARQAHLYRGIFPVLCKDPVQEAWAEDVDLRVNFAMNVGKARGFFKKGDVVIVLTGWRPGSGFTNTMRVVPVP
Experiment [2] has as its target T1, Pyruvate kinase PKM. Kind of experiment: Activation of PKM2 (unknown origin) incubated for 30 mins.
Target sequence in this assay (P14618 whole entry): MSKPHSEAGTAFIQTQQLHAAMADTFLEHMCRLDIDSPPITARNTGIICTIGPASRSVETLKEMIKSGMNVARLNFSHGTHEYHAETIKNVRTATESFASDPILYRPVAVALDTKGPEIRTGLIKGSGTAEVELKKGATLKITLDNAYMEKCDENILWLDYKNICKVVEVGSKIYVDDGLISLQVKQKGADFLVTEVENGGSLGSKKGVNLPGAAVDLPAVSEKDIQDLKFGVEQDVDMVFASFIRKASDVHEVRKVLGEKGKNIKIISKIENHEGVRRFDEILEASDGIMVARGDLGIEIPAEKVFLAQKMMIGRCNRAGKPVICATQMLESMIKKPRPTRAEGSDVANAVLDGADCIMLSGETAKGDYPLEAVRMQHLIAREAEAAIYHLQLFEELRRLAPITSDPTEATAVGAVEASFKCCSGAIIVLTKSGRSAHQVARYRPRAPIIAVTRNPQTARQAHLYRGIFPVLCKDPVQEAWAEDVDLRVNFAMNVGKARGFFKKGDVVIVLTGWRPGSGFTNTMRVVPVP

For the compound `C=C1C(=O)O[C@@H]2/C=C(\C)CC/C=C(/CO)CC[C@@H]12`, in the experiment with T-cell, the half-inhibitory concentration (IC50) amounted to 720 nM. The same measure, in the same setting: for `C=C1C(=O)O[C@@H]2/C=C(\C)CC/C=C(/C(=O)OCC)CC[C@@H]12` the value was 1030 nM; for `C=C1C(=O)O[C@@H]2/C=C(\C)CC[C@H]3C(F)(F)[C@@]3(C)CC[C@@H]12`, 1230 nM. Consider `C=C1C(=O)O[C@@H]2/C=C(\C)CC/C=C(/CBr)CC[C@@H]12`, for which the IC50 in the experiment on T-cell was found to be 11800 nM. The result on Pyruvate kinase PKM [1] was inactive. In the case of `C=C1C(=O)O[C@@H]2/C=C(\C)CCC[C@H](C)CC[C@@H]12`, in the experiment on T-cell, the IC50 was 2890 nM.

Regarding `C=C1C(=O)O[C@H]2[C@H]1CC[C@]1(C)O[C@@H]1CC[C@@]1(C)O[C@@H]21`, the IC50 in the experiment with T-cell was found to be 10600 nM. For the same compound, the outcome at Pyruvate kinase PKM [1] was inactive.

`C/C1=C\[C@H]2OC(=O)[C@@H](C)[C@@H]2CC/C(C)=C/CC1` [DIHYDRO COSTUNOLIDE]: the IC50 with T-cell stood at 15000 nM. Besides, the result on Pyruvate kinase PKM [1] was inactive.

On to `C=C1C(=O)O[C@@H]2C[C@@H](C)CC[C@H]3O[C@@]3(C)CC[C@@H]12`, for which the IC50 with T-cell came to 1970 nM. Same read-out and setting: in the case of `C=C1C(=O)O[C@@H]2/C=C(\C)CC/C=C(/C(=O)OC)CC[C@@H]12` it was 850 nM; in that of `C=C1C(=O)O[C@H]2[C@H]1CC[C@@H](C)CCC[C@@]1(C)O[C@@H]21`, 1420 nM; in that of `C=C1C(=O)O[C@@H]2/C=C(\C)CC[C@H]3O[C@@]3(C)CC[C@@H]12`, 2630 nM.

Take `C=C1C(=O)O[C@@H]2/C=C(\C)CC/C=C(\C)CC[C@@H]12` [COSTUNOLIDE]: in the experiment on T-cell, the half-maximal inhibitory concentration (IC50) amounted to 2570 nM. At Pyruvate kinase PKM [2], the midpoint of the response, the EC50, lay at 1510 nM.

As for `C=C1C(=O)O[C@@H]2/C=C(\C)CC/C=C(/COC(=O)[C@@H](NC(=O)[C@@H](N)[C@@H](C)CC)C(C)C)CC[C@@H]12`, in the experiment with T-cell, the 50% inhibitory concentration (IC50) amounted to 1010 nM. With `C=C1C(=O)O[C@@H]2[C@H]3C(C)=CC[C@@H](O)[C@]3(C)CC[C@@H]12` [SANTAMARIN], the concentration for half-maximal inhibition (IC50) with T-cell was determined as 5560 nM. For the same compound, the result at Pyruvate kinase PKM [1] was inactive. For `C=C1C(=O)O[C@@H]2/C=C(\C)CC/C=C(/CCl)CC[C@@H]12` the same measures were 15200 nM and “inactive”. For `C/C1=C\[C@H]2OC(=O)/C(=C\c3ccccc3)[C@@H]2CC/C(C)=C/CC1`, the IC50 with T-cell came to 16100 nM. Besides, at Pyruvate kinase PKM [1], the outcome was inactive. On to `C=C1C(=O)O[C@@H]2/C=C(\C)CC/C=C(/CF)CC[C@@H]12`, for which the IC50 in the experiment on T-cell worked out at 1520 nM. On to `C=C1C(=O)O[C@@H]2/C=C(\C)CC/C=C(/C(F)F)CC[C@@H]12`, for which the IC50 with T-cell was 1210 nM. For the compound `C=C1CC[C@@H](O)[C@]2(C)CC[C@H]3C(=C)C(=O)O[C@@H]3[C@@H]12` [REYNOSIN], the half-inhibitory concentration (IC50) in the experiment with T-cell is 6200 nM. At Pyruvate kinase PKM [1], the result was inactive. With `C=C1C(=O)O[C@@H]2/C=C(\C)CC/C=C(/C(=O)O)CC[C@@H]12`, in the experiment with T-cell, the IC50 was determined as 10200 nM. On Pyruvate kinase PKM [1], the outcome was inactive. For `C=C1C(=O)O[C@@H]2C3=C(C)CC[C@@H](O)[C@]3(C)CC[C@@H]12` the same measures were 6170 nM and “inactive”. Turning to `C=C1C(=O)O[C@@H]2/C=C(\C)CC/C=C(/COC(=O)[C@@H](N)C(C)C)CC[C@@H]12`, in the experiment with T-cell, the concentration for half-maximal inhibition (IC50) worked out at 880 nM.

As for `C=C1C(=O)O[C@@H]2/C=C(\C)CC/C=C(/C=O)CC[C@@H]12`, the IC50 in the experiment with T-cell was 25900 nM. For the same compound, at Pyruvate kinase PKM [1], the outcome was inactive.
